# From ChEMBL document CHEMBL1138369, “Novel nucleotide triphosphates as potent P2Y2 agonists” (Bioorg Med Chem Lett, 2007)
# Columns and labels:
# Type in all cases: functional
# P2Y purinoceptor 2 = P2Y purinoceptor 2 (Homo sapiens, UniProt P41231); assay: Agonist activity at human P2Y2 receptor expressed in human 1321N1 by FLIPR assay
# P2Y purinoceptor 1 = P2Y purinoceptor 1 (Homo sapiens, UniProt P47900); assay: Agonist activity at human cloned P2Y1 receptor expressed in human 1321N1 by FLIPR assay
# P2Y purinoceptor 1, sequence (P47900 whole entry): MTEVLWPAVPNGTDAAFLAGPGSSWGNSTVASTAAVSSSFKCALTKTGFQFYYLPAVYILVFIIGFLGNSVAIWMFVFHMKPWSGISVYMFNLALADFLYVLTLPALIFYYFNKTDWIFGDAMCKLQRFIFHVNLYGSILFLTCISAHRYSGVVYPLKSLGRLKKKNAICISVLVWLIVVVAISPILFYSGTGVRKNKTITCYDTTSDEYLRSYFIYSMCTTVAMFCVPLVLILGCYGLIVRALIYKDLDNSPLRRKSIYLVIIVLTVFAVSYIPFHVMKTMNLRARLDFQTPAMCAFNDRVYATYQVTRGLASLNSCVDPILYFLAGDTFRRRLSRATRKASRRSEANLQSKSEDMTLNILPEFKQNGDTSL
# P2Y purinoceptor 4 = P2Y purinoceptor 4 (Homo sapiens, UniProt P51582); assay: Agonist activity at human cloned P2Y4 receptor expressed in human 1321N1 by FLIPR assay
# P2Y purinoceptor 4, sequence (P51582 whole entry): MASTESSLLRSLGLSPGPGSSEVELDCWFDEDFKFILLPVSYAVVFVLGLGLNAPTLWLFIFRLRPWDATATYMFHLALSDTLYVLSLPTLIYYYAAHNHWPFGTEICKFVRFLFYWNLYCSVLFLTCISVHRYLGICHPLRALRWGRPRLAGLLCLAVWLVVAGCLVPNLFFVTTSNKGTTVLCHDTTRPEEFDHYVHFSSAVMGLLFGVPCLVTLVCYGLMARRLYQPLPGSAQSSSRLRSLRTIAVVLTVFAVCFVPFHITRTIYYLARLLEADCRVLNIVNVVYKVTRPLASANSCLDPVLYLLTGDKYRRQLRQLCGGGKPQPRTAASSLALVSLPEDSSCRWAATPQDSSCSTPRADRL
# P2Y purinoceptor 6 = P2Y purinoceptor 6 (Homo sapiens, UniProt Q15077); assay: Agonist activity at human cloned P2Y6 receptor expressed in human 1321N1 by FLIPR assay
# P2Y purinoceptor 6, sequence (Q15077 whole entry): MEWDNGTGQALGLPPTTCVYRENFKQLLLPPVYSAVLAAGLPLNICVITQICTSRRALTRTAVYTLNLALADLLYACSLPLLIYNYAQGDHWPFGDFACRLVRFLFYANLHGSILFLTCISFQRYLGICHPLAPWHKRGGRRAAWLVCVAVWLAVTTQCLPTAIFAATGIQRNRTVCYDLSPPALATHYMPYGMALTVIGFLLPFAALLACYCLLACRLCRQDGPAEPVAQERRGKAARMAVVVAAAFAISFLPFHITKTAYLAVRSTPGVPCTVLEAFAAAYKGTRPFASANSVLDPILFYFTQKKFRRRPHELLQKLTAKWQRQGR
# P2Y purinoceptor 2, sequence (P41231 whole entry): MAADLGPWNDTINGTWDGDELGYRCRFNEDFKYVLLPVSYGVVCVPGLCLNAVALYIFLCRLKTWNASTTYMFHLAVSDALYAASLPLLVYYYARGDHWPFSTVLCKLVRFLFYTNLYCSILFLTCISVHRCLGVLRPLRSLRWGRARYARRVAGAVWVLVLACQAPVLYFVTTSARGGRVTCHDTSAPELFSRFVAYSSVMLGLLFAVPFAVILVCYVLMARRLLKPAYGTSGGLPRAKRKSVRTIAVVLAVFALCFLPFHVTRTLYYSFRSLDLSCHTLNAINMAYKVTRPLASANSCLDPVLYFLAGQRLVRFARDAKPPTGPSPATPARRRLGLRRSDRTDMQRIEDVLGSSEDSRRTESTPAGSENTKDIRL
Compound,EC50 (P2Y purinoceptor 2),EC50 (P2Y purinoceptor 1),EC50 (P2Y purinoceptor 4),EC50 (P2Y purinoceptor 6)
COc1cc2ccn([C@@H]3O[C@H](COP(=O)(O)OP(=O)(O)OP(=O)(O)O)[C@@H](O)[C@H]3O)c(=O)c2cc1F,6 nM,,,
CSc1ccc2ccn([C@@H]3O[C@H](COP(=O)(O)OP(=O)(O)OP(=O)(O)O)[C@@H](O)[C@H]3O)c(=O)c2c1,140 nM,,,
CSc1cc2ccn([C@@H]3O[C@H](COP(=O)(O)OP(=O)(O)OP(=O)(O)O)[C@@H](O)[C@H]3O)c(=O)c2cc1F,3 nM,> 20000 nM,> 20000 nM,> 20000 nM
O=c1c2cc(F)ccc2ccn1[C@@H]1O[C@H](COP(=O)(O)OP(=O)(O)OP(=O)(O)O)[C@@H](O)[C@H]1O,5 nM,> 20000 nM,3580 nM,> 20000 nM
Cc1ccc2ccn([C@@H]3O[C@H](COP(=O)(O)OP(=O)(O)OP(=O)(O)O)[C@@H](O)[C@H]3O)c(=O)c2c1,148 nM,,,
O=c1c2c(ccn1[C@@H]1O[C@H](COP(=O)(O)OP(=O)(O)OP(=O)(O)O)[C@@H](O)[C@H]1O)CCCC2,55 nM,,,
O=c1c2ccccc2ccn1[C@@H]1O[C@H](COP(=O)(O)OP(=O)(O)OP(=O)(O)O)[C@@H](O)[C@H]1O,31 nM,> 20000 nM,7040 nM,> 20000 nM
Cc1ccc2c(=O)n([C@@H]3O[C@H](COP(=O)(O)OP(=O)(O)OP(=O)(O)O)[C@@H](O)[C@H]3O)ccc2c1,35 nM,,,
O=c1c2occc2ccn1[C@@H]1O[C@H](COP(=O)(O)OP(=O)(O)OP(=O)(O)O)[C@@H](O)[C@H]1O,221 nM,,,
O=c1c2ccsc2ccn1[C@@H]1O[C@H](COP(=O)(O)OP(=O)(O)OP(=O)(O)O)[C@@H](O)[C@H]1O,30 nM,,,
Cc1cn([C@@H]2O[C@H](COP(=O)(O)OP(=O)(O)OP(=O)(O)O)[C@@H](O)[C@H]2O)c(=O)c2ccccc12,17500 nM,,,
CS(=O)(=O)c1ccc2ccn([C@@H]3O[C@H](COP(=O)(O)OP(=O)(O)OP(=O)(O)O)[C@@H](O)[C@H]3O)c(=O)c2c1,650 nM,,,
O=c1c2ccc(Cl)cc2ccn1[C@@H]1O[C@H](COP(=O)(O)OP(=O)(O)OP(=O)(O)O)[C@@H](O)[C@H]1O,541 nM,,,
O=c1c2ccc(F)cc2ccn1[C@@H]1O[C@H](COP(=O)(O)OP(=O)(O)OP(=O)(O)O)[C@@H](O)[C@H]1O,77 nM,,,

# The next lines start with the values.
EC50 (P2Y purinoceptor 2),EC50 (P2Y purinoceptor 1),EC50 (P2Y purinoceptor 4),EC50 (P2Y purinoceptor 6),Compound
557 nM,,,,Cc1cccc2c(=O)n([C@@H]3O[C@H](COP(=O)(O)OP(=O)(O)OP(=O)(O)O)[C@@H](O)[C@H]3O)ccc12
88 nM,,,,N#Cc1ccc2c(=O)n([C@@H]3O[C@H](COP(=O)(O)OP(=O)(O)OP(=O)(O)O)[C@@H](O)[C@H]3O)ccc2c1
13 nM,,,,O=c1c2cc(Cl)c(Cl)cc2ccn1[C@@H]1O[C@H](COP(=O)(O)OP(=O)(O)OP(=O)(O)O)[C@@H](O)[C@H]1O
16 nM,> 20000 nM,> 20000 nM,> 20000 nM,O=c1c2cc(F)c(F)cc2ccn1[C@@H]1O[C@H](COP(=O)(O)OP(=O)(O)OP(=O)(O)O)[C@@H](O)[C@H]1O
,> 20000 nM,,,O=c1ccn([C@@H]2O[C@H](COP(=O)(O)OP(=O)(O)OP(=O)(O)OP(=O)(O)OC[C@H]3O[C@@H](n4ccc(=O)[nH]c4=O)[C@H](O)[C@@H]3O)[C@@H](O)[C@H]2O)c(=O)[nH]1 [DIQUAFOSOL]
85 nM,,,,Cc1cccc2ccn([C@@H]3O[C@H](COP(=O)(O)OP(=O)(O)OP(=O)(O)O)[C@@H](O)[C@H]3O)c(=O)c12
26 nM,,,,COc1ccc2ccn([C@@H]3O[C@H](COP(=O)(O)OP(=O)(O)OP(=O)(O)O)[C@@H](O)[C@H]3O)c(=O)c2c1
12 nM,,,,N#Cc1ccc2ccn([C@@H]3O[C@H](COP(=O)(O)OP(=O)(O)OP(=O)(O)O)[C@@H](O)[C@H]3O)c(=O)c2c1
68 nM,,,,O=c1c2ccoc2ccn1[C@@H]1O[C@H](COP(=O)(O)OP(=O)(O)OP(=O)(O)O)[C@@H](O)[C@H]1O
7 nM,> 2000 nM,39 nM,424 nM,O=c1ccn([C@@H]2O[C@H](COP(=O)(O)OP(=O)(O)OP(=O)(O)O)[C@@H](O)[C@H]2O)c(=O)[nH]1 [URIDINE TRIPHOSPHATE]
10 nM,> 20000 nM,20000 nM,> 20000 nM,O=c1c2cc(Cl)ccc2ccn1[C@@H]1O[C@H](COP(=O)(O)OP(=O)(O)OP(=O)(O)O)[C@@H](O)[C@H]1O
35 nM,,,,O=c1c2cccnc2ccn1[C@@H]1O[C@H](COP(=O)(O)OP(=O)(O)OP(=O)(O)O)[C@@H](O)[C@H]1O
4 nM,,,,CN(C)c1cc2ccn([C@@H]3O[C@H](COP(=O)(O)OP(=O)(O)OP(=O)(O)O)[C@@H](O)[C@H]3O)c(=O)c2cc1F
